US20130337579A1, “Methods for Determining Protein Ligand Binding” (UNIVERSITY OF MARYLAND, COLLEGE PARK, priority 2010, published 2013)

Tests used:
[1] = molecular target: Maltose binding protein (MBP) (Escherichia coli, UniProt P0AEX9); settings: whole-cell lysate, 8 nM 32P-cdiGMP
Experimental: (§1) Radiolabeled ligands were incubated with each of the proteins and the mixtures were spotted on nitrocellulose. After spreading by capillary action, membranes were dried and quantitated by phosphorimager. […] The specificity of Alg44PilZ binding to cdiGMP was further tested by competition with excess unlabeled nucleotides (400-fold molar excess relative to the Alg44PilZ protein).

[2] = molecular target: E. coli NtrB (Escherichia coli, UniProt P0AFB5); assay: DRaCALA binding of radiolabeled nucleotides to purified NtrB; settings: 20 μM purified protein; 500 nM 14C-cAMP, 4 nM 32P-ATP or 4 nM 32P-cdiGMP
E. coli NtrB, sequence (P0AFB5 whole entry): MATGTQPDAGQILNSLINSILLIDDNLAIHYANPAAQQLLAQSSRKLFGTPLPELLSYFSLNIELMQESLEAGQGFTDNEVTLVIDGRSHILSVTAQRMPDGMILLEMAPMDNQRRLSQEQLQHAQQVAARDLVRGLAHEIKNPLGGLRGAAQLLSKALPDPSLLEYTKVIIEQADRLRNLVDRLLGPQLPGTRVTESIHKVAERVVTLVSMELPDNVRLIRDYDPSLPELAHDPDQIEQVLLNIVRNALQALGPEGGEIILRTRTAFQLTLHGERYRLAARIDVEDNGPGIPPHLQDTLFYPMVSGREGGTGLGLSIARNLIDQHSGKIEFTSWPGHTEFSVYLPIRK
Experimental: as §1
(§2) Protein or whole cell lysates in 1× cdiGMP binding buffer (20 μl) was mixed with 4 nM of radiolabeled nucleotide and allowed to incubate for 10 minutes at room temperature. Radiolabeled nucleotide was competed away by cold nucleotides in concentrations and for times indicated. Purified proteins were tested in technical replicates. Whole cell lysates in FIG. 4 and FIG. 12 were tested in biological triplicates. Whole cell lysates in FIG. 5 were tested in technical replicates. These mixtures were pipetted (2.5-5 μl) onto dry, untreated nitrocellulose (GE Healthcare) in triplicate and allowed to dry completely before quantification. An FLA7100 Fujifilm Life Science Phosphorimager was used to detect luminescence following a 5-minute exposure of blotted nitrocellulose to phosphorimager film. Data was quantified using Fujifilm Multi Gauge software v3.0.

[3] = molecular target: T1, Alg44PilZ (Pseudomonas aeruginosa, UniProt Q9HY69); settings: previously determined by ITC (Merighi 2007); cited from earlier work
T1 construct: Previous studies of the dissociation rate of cdiGMP from Alg44PilZ
T1 sequence (Q9HY69 16-116): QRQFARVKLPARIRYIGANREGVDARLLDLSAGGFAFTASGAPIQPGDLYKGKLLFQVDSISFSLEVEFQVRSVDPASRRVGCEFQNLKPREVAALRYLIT

[4] = tested on: whole-cell lysates of P. aeruginosa strains; assay: DRaCALA analysis of cdiGMP binding by whole-cell lysates of P. aeruginosa strains
[5] = molecular target: T2, E. coli CRP (Escherichia coli, UniProt P0ACJ8); assay: DRaCALA binding of radiolabeled nucleotides to purified CRP; settings: 20 μM purified protein; 500 nM 14C-cAMP, 4 nM 32P-ATP or 4 nM 32P-cdiGMP
T2 construct: His; made in house
T2 sequence (P0ACJ8 whole entry): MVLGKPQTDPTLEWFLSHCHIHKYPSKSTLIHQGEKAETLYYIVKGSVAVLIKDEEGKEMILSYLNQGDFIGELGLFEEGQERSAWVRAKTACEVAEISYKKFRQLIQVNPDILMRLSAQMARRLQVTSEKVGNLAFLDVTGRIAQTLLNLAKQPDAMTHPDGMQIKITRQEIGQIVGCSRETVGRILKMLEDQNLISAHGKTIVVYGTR
Experimental: as §1, §2

[6] = molecular target: Vc2* riboswitch RNA; assay: Electrophoretic mobility shift assay (EMSA) of cdiGMP binding to Vc2* RNA; settings: read-out: Kd (apparent affinity)
Source text: We have shown that protein interaction with DNA can be detected by DRaCALA. We wondered if the principle of DRaCALA would also apply to ribonucleic acids. In particular, can the DRaCALA technology be used to detect the interaction of riboswitches with their small molecule ligands. One example of such an interaction that has been of recent interest is the cdiGMP responsive Vc2 riboswitch identified in bacteria. To study such an interaction with DRaCALA, one of the binding partners must be immobilized. […] The biotinylated riboswitch was sequestered by streptavidin, allowing the nucleic acid to take the place of protein as the immobile partner in the binding assay. Vc2* was tested directly for sequestration of cdiGMP and also biotinylated and tested for binding to cdiGMP in the presence or absence of streptavidin. The 4 nM radiolabelled cdiGMP was mobile alone and in the presence of the Vc2* or biotinylated Vc2* RNA (FIG. 19A, lanes 1-3). […] Biotinylated Vc2* RNA and bound cdiGMP was immobilized by streptavidin as expected (lane 6). […]
Gel shift assays were performed using 8% acrylamide gels with 100 mM Tris/HEPES, pH=7.5, 10 mM MgCl2, and 0.1 mM EDTA in the gel and running buffer. […] Gels were imaged with a phosphorimager and fraction bound quantified with Fuji Image Guage software. […]

[7] = molecular target: T1, Alg44PilZ; settings: estimated by filter binding, previous studies; cited from earlier work

## Nc1nc2c(ncn2[C@@H]2O[C@@H]3CO[P@](=O)(O)O[C@H]4[C@@H](O)[C@H](n5cnc6c(=O)[nH]c(N)nc65)O[C@@H]4CO[P@](=O)(O)O[C@H]3[C@H]2O)c(=O)[nH]1 [cdiGMP, cyclic-di-GMP]
[1]
  binding by protein extracts from E. coli expressing MBP alone: did not bind
[2]
  binding to NtrB (sequestration of radiolabel signal): not
[3]
  Kd: 5600 nM
[4]; PA14 overexpressing diguanylate cyclase WspR
  BSp: 1.19
[4]; PA14 overexpressing phosphodiesterase RocR
  BSp: 3.51
[4]; PA14ΔpelD overexpressing RocR
  BSp: 2.70
[4]; all groups
  average BSp of strain groups isolated from different sources: greater than 1.48
[4]; average over all P. aeruginosa lysates of the table
  Average Bc: 0.185
[4]; wild-type PA14 extract
  BSp: 1.27
[5]
  binding to CRP (sequestration of radiolabel signal): did not bind
[6]
  Kd: 9.8 nM
[7]
  half-life of the complex: 5 min
